Test results taken from patent US11186606B2, “Compositions and methods of modulating the immune response by activating alpha protein kinase 1” (Shanghai Yao Yuan Biotechnology Co., Ltd., priority 2017, dated 2021).

Target: ALPK1 (Homo sapiens, UniProt Q96QP1)
Test: IL8 secretion in HEK293 cells (IL8 ELISA) as indicator of ALPK1 activation
Conditions: for IL8 secretion in HEK293 cells: 4 hours
Description: We pre-mixed H1b-ADP with phosphatase inhibitor sodium orthovanadate (Na3VO4) before incubation with FBS.
In these experiments, serial dilutions of the compounds were added to the tissue culture media of HEK293 cells with (FIG. 27B, FIG. 28B, FIG. 29B) or without (FIG. 26, FIG. 27A, FIG. 28A, FIG. 29A) 10% FBS, as indicated in the figures. After 4 hours, the cell supernatant was collected and analyzed for IL8 concentration using IL8 ELISA (BD) as an indicator of ALPK1 activation.

Chain of ALPK1 (Q96QP1 whole entry): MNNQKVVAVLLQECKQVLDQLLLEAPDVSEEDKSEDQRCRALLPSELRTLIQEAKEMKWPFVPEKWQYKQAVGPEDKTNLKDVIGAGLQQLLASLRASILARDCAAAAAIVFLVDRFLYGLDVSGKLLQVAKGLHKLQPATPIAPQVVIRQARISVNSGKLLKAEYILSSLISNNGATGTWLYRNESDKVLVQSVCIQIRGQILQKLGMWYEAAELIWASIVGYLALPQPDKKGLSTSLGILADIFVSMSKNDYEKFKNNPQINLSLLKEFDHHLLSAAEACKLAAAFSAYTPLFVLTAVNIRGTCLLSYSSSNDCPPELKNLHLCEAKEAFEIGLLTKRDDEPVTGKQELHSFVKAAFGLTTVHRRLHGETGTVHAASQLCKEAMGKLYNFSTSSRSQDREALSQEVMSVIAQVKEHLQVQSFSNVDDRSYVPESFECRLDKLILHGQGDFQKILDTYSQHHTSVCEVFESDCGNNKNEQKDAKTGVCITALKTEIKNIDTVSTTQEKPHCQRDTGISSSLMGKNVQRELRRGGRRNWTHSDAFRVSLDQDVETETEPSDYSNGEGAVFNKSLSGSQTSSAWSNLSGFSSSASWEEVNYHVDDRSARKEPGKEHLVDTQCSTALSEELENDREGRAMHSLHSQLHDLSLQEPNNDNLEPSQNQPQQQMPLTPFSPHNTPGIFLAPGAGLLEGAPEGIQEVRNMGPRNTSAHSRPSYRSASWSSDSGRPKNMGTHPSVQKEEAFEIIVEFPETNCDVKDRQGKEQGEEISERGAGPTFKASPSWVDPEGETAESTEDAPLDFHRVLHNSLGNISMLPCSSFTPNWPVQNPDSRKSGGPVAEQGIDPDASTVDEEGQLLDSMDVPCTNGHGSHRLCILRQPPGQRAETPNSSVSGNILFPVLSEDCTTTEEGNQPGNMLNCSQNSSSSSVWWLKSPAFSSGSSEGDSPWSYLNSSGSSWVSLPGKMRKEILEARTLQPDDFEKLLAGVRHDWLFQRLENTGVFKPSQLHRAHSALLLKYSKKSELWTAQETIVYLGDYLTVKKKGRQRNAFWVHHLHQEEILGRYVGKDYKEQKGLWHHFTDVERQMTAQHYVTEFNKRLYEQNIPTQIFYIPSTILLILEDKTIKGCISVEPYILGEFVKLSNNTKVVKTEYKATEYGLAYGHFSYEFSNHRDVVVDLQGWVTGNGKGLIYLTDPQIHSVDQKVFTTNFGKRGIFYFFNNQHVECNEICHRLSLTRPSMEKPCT

In the case of `CC(=O)OC[C@H](F)[C@H]1O[C@@H](OP(=O)(O)OP(=O)(O)OC[C@H]2O[C@@H](n3cnc4c(N)ncnc43)[C@H](O)[C@@H]2O)[C@@H](OC(C)=O)[C@@H](OC(C)=O)[C@@H]1OC(C)=O` [Compound 3, (2S,3S,4S,5S,6S)-2-((S)-2-acetoxy-1-fluoroethyl)-6-(((((((2R,3S,4R,5R)-5-(6-amino-9H-purin-9-yl)-3,4-dihydroxytetrahydrofuran-2-yl)methoxy)(hydroxy)phosphoryl)oxy)(hydroxy)phosphoryl)oxy)tetrahydro-2H-pyran-3,4,5-triyl triacetate], the “IL8 secretion in HEK293 cells” value (with 10% FBS) is reported as “activate IL8 secretion” and the “IL8 secretion in HEK293 cells” value (without FBS) is reported as “activate IL8 secretion”.

`CC(=O)OC[C@H]1O[C@@H](OP(=O)(O)OP(=O)(O)OC[C@H]2O[C@@H](n3cnc4c(N)ncnc43)[C@H](O)[C@@H]2O)[C@@H](OC(C)=O)[C@@H](OC(C)=O)[C@@H]1OC(C)=O` [Compound 5, (2R,3R,4S,5S,6S)-2-(acetoxymethyl)-6-(((((((2R,3S,4R,5R)-5-(6-amino-9H-purin-9-yl)-3,4-dihydroxytetrahydrofuran-2-yl)methoxy)(hydroxy)phosphoryl)oxy)(hydroxy)phosphoryl)oxy)tetrahydro-2H-pyran-3,4,5-triyl triacetate] was tested, and the “IL8 secretion in HEK293 cells” value (with 10% FBS) was “increased IL8 secretion” and the “IL8 secretion in HEK293 cells” value (without FBS) was “increased IL8 secretion”.

For `CO[C@@H]1[C@H](OC)[C@@H](COP(=O)(O)OP(=O)(O)O[C@@H]2O[C@H]([C@@H](COC(C)=O)OC(C)=O)[C@@H](OC(C)=O)[C@H](OC(C)=O)[C@@H]2OC(C)=O)O[C@H]1n1cnc2c(N)ncnc21` [Compound 13, (2S,3S,4S,5R,6R)-2-(((((((2R,3R,4R,5R)-5-(6-amino-9H-purin-9-yl)-3,4-dimethoxytetrahydrofuran-2-yl)methoxy)(hydroxy)phosphoryl)oxy)(hydroxy)phosphoryl)oxy)-6-((R)-1,2-diacetoxyethyl)tetrahydro-2H-pyran-3,4,5-triyl triacetate], the “IL8 secretion in HEK293 cells” value (with 10% FBS) was “increased IL8 secretion” and the “IL8 secretion in HEK293 cells” value (without FBS) was “increased IL8 secretion”.

With `COC1C(OC)[C@@H](COP(=O)(O)OP(=O)(O)O[C@@H]2OC([C@H](O)CO)[C@@H](O)C(O)C2O)O[C@H]1n1cnc2c(N)ncnc21` (stereo partly drawn) [Compound 14, Adenosine-2′3′-dimethoxy-5′-(D-glycero-β-D-mannoheptopyranosyl) diphosphate] the “IL8 secretion in HEK293 cells” value (with 10% FBS) was “increased IL8 secretion” and the “IL8 secretion in HEK293 cells” value (without FBS) was “increased IL8 secretion”.

For `CC(=O)OC[C@@H](OC(C)=O)[C@H]1O[C@@H](OP(=O)(O)OP(O)(=S)OC[C@H]2O[C@@H](n3cnc4c(N)ncnc43)[C@H](O)[C@@H]2O)[C@@H](OC(C)=O)[C@@H](OC(C)=O)[C@@H]1OC(C)=O` (stereo partly drawn) [Compound 15, (2S,3S,4S,5R,6R)-2-(((((((2R,3S,4R,5R)-5-(6-amino-9H-purin-9-yl)-3,4-dihydroxytetrahydrofuran-2-yl)methoxy)(hydroxy)phosphorothioyl)oxy)(hydroxy)phosphoryl)oxy)-6-((R)-1,2-diacetoxyethyl)tetrahydro-2H-pyran-3,4,5-triyl triacetate], the “resistance to serum degradation” value (compare without FBS and with 10% FBS (FIG. 27A and FIG. 27B)) was “unexpected resistance to serum degradation”, the “IL8 secretion in HEK293 cells” value (with 10% FBS) was “activate IL8 secretion” and the “IL8 secretion in HEK293 cells” value (without FBS) was “activate IL8 secretion”.

`Nc1ncnc2c1ncn2[C@@H]1O[C@H](COP(O)(=S)OP(=O)(O)O[C@@H]2OC([C@H](O)CO)[C@@H](O)C(O)C2O)C(O)C1O` (some centres unmarked) [Compound 16] was tested, and the “IL8 secretion in HEK293 cells” value (with 10% FBS) was “increased IL8 secretion” and the “IL8 secretion in HEK293 cells” value (without FBS) was “increased IL8 secretion”.

For `CC(=O)OC[C@@H](OC(C)=O)[C@H]1O[C@@H](OP(=O)(O)OP(=O)(O)OC[C@H]2O[C@@H](n3cnc4c(N)ncnc43)[C@H](O)[C@H]2F)[C@@H](OC(C)=O)[C@@H](OC(C)=O)[C@@H]1OC(C)=O` [Compound 17, (2S,3S,4S,5R,6R)-2-(((((((2R,3R,4S,5R)-5-(6-amino-9H-purin-9-yl)-3-fluoro-4-hydroxytetrahydrofuran-2-yl)methoxy)(hydroxy)phosphoryl)oxy)(hydroxy)phosphoryl)oxy)-6-((R)-1,2-diacetoxyethyl)tetrahydro-2H-pyran-3,4,5-triyl triacetate], the “IL8 secretion in HEK293 cells” value (with 10% FBS) was “increased IL8 secretion” and the “IL8 secretion in HEK293 cells” value (without FBS) was “increased IL8 secretion”.

With `CC(=O)OC[C@@H](OC(C)=O)[C@H]1O[C@@H](OP(=O)(O)OP(=O)(O)OC[C@@]2(F)O[C@@H](n3cnc4c(N)ncnc43)[C@@H]3OC(C)(C)O[C@@H]32)[C@@H](OC(C)=O)[C@@H](OC(C)=O)[C@@H]1OC(C)=O` [Compound 19, (2S,3S,4S,5R,6R)-2-(((((((3aS,4S,6R,6aR)-6-(6-amino-9H-purin-9-yl)-4-fluoro-2,2-dimethyltetrahydrofuro[3,4-d][1,3]dioxol-4-yl)methoxy)(hydroxy)phosphoryl)oxy)(hydroxy)phosphoryl)oxy)-6-((R)-1,2-diacetoxyethyl)tetrahydro-2H-pyran-3,4,5-triyl triacetate] the “IL8 secretion in HEK293 cells” value (with 10% FBS) was “activate IL8 secretion” and the “IL8 secretion in HEK293 cells” value (without FBS) was “activate IL8 secretion”.

`CC(=O)OC[C@@H](OC(C)=O)[C@H]1O[C@@H](OP(=O)(O)OP(=O)(O)OC[C@@]2(F)O[C@@H](n3cnc4c(N)ncnc43)[C@H](O)[C@@H]2O)[C@@H](OC(C)=O)[C@@H](OC(C)=O)[C@@H]1OC(C)=O` [Compound 20, (2S,3S,4S,5R,6R)-2-(((((((2S,3S,4R,5R)-5-(6-amino-9H-purin-9-yl)-2-fluoro-3,4-dihydroxytetrahydrofuran-2-yl)methoxy)(hydroxy)phosphoryl)oxy)(hydroxy)phosphoryl)oxy)-6-((R)-1,2-diacetoxyethyl)tetrahydro-2H-pyran-3,4,5-triyl triacetate] was tested, and the “IL8 secretion in HEK293 cells” value (with 10% FBS) was “activate IL8 secretion” and the “IL8 secretion in HEK293 cells” value (without FBS) was “activate IL8 secretion”.

`CC(=O)OC[C@H](OC(C)=O)[C@H]1O[C@@H](OP(=O)(O)OP(=O)(O)OC[C@H]2O[C@@H](n3cnc4c(N)ncnc43)[C@H](O)[C@@H]2O)[C@@H](OC(C)=O)[C@@H](OC(C)=O)[C@@H]1OC(C)=O` [Compound 21, (2S,3S,4S,5R,6R)-2-(((((((2R,3S,4R,5R)-5-(6-amino-9H-purin-9-yl)-3,4-dihydroxytetrahydrofuran-2-yl)methoxy)(hydroxy)phosphoryl)oxy)(hydroxy)phosphoryl)oxy)-6-((S)-1,2-diacetoxyethyl)tetrahydro-2H-pyran-3,4,5-triyl triacetate] was tested, and the “IL8 secretion in HEK293 cells” value (with 10% FBS) was “increased IL8 secretion” and the “IL8 secretion in HEK293 cells” value (without FBS) was “increased IL8 secretion”.

In the case of `Nc1ncnc2c1ncn2[C@@H]1O[C@H](COP(=O)(O)OP(=O)(O)O[C@@H]2OC([C@@H](O)CO)[C@@H](O)C(O)C2O)C(O)C1O` (stereo partly drawn) [Compound 22, Adenosine-5′-(L-glycero-β-D-mannoheptopyranosyl) diphosphate], the “IL8 secretion in HEK293 cells” value (with 10% FBS) is reported as “increased IL8 secretion” and the “IL8 secretion in HEK293 cells” value (without FBS) is reported as “increased IL8 secretion”.
